From ChEMBL document CHEMBL1155011, “Structure-activity relationships of the cycloalkanol ethylamine scaffold: discovery of selective norepinephrine reuptake inhibitors” (J Med Chem, 2008)

Tests used:
[1] = molecular target: T1, Sodium-dependent dopamine transporter (Homo sapiens, UniProt Q01959); experiment: Displacement of [3H]WIN-35428 from human recombinant dopamine transporter expressed in CHO cells at 1000 nM; type: cell-based
[2] = molecular target: T2, Sodium-dependent serotonin transporter (Homo sapiens, UniProt P31645); experiment: Inhibition of 5HT uptake at human SERT expressed in human JAR cells at 1000 nM; type: cell-based
Target sequence in this assay (P31645 whole entry, looked up): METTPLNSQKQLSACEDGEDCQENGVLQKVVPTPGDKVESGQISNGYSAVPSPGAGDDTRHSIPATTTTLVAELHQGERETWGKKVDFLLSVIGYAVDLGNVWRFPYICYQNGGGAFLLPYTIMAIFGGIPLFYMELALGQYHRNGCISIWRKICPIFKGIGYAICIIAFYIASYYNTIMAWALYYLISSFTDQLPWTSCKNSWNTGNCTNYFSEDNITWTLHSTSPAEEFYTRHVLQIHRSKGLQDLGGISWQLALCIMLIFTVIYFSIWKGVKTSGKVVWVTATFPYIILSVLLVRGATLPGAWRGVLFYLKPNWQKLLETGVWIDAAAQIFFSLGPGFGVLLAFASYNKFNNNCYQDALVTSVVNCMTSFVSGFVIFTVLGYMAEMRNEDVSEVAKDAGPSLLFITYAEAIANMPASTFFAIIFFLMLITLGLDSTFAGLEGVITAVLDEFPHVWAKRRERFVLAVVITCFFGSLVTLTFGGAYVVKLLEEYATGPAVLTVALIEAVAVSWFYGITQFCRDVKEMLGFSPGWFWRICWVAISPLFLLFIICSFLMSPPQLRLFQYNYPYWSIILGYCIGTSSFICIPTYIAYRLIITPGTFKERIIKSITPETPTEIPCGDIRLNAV

[3] = molecular target: T3, Sodium-dependent noradrenaline transporter (Homo sapiens, UniProt P23975)
[4] = molecular target: T3, Sodium-dependent noradrenaline transporter; experiment: biochemical
[5] = molecular target: T3, Sodium-dependent noradrenaline transporter; experiment: Inhibition of norepinephrine uptake at human norepinephrine transporter expressed in MDCK-Net6 cells at 1000 nM; type: cell-based
[6] = molecular target: T1, Sodium-dependent dopamine transporter; experiment: biochemical
[7] = molecular target: T2, Sodium-dependent serotonin transporter; type: cell-based, JAR
Target sequence in this assay (P31645 whole entry): as the sequence (P31645 whole entry, looked up) above

[8] = molecular target: T3, Sodium-dependent noradrenaline transporter; experiment: Displacement of [3H]nisoxetine from human norepinephrine transporter expressed in MDCK-Net6 cells at 1000 nM; type: cell-based
Homo sapiens = organism: Homo sapiens; experiment: Selectivity ratio of IC50 for human NET over IC50 for human SERT
Transporter = Transporter (Rattus norvegicus, UniProt Q63380)
Chain of Transporter (Q63380 whole entry): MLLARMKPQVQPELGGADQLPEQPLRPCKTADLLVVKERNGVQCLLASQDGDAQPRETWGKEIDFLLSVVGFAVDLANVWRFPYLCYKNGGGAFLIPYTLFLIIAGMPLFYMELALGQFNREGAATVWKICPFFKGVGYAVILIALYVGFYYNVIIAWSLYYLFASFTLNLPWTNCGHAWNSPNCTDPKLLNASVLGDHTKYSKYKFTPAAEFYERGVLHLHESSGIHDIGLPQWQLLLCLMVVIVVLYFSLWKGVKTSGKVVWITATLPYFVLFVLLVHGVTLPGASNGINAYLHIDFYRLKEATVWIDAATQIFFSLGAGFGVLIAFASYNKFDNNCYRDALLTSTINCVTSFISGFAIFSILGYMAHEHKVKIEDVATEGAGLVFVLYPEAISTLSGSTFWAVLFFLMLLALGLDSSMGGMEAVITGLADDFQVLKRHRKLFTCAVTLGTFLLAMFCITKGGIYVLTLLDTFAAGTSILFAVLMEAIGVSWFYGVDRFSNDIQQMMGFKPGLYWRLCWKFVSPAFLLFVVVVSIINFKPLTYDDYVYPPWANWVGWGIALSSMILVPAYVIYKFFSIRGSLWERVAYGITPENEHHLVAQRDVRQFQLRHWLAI
Description: Inhibition of norepinephrine uptake at rat brain norepinephrine transporter

T1 sequence (Q01959 whole entry): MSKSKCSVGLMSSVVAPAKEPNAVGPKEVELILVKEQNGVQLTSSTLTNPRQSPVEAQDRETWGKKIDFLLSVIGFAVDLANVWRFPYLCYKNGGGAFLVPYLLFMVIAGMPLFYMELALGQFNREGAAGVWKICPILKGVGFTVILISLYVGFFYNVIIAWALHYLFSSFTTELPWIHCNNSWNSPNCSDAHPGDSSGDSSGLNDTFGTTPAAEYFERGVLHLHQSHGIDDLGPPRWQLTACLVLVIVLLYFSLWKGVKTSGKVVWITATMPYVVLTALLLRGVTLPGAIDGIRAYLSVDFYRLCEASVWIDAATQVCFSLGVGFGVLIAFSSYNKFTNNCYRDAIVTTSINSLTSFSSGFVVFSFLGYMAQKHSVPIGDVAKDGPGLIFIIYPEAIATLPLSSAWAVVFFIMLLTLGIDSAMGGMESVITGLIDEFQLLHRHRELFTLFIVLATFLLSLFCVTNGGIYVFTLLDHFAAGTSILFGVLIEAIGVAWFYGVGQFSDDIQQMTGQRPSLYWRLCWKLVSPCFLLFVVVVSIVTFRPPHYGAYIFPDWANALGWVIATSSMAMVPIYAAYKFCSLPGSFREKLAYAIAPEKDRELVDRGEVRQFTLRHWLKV
T3 sequence (P23975 whole entry): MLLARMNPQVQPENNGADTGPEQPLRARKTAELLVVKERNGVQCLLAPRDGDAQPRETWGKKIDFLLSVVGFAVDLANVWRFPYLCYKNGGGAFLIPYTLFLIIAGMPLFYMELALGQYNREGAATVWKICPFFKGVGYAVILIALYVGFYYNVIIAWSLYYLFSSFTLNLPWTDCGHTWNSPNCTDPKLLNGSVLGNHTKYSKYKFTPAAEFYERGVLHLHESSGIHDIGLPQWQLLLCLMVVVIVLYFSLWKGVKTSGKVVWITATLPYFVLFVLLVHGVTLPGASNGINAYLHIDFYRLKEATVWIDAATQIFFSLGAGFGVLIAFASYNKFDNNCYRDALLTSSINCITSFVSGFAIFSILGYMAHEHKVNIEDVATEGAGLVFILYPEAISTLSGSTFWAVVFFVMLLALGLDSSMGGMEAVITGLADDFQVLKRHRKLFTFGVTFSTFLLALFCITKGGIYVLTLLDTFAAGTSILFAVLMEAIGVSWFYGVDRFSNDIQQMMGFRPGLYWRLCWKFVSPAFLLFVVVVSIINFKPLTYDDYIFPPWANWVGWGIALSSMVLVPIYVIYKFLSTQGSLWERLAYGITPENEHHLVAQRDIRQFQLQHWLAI

Row | SMILES | Activity [1] [%] | inhibition [2] [%] | IC50 [3] [µM] | Ki [4] [µM] | inhibition [5] [%] | Ki [6] [µM] | IC50 [7] [µM] | Activity [8] [%] | Ratio IC50 (Homo sapiens) | IC50 (Transporter) [µM]
1 | OC1(C(CN2CCNCC2)c2cccc(OC(F)(F)F)c2)CCCCC1 (stereo unspecified) | 13 | 3 | 0.284 | 0.14 |  |  |  |  |  | 
2 | COc1ccc(C(CN2CCNCC2)C2(O)CCCCC2)cc1 (stereo unspecified) | 9 | 24 |  | 0.519 | 34 |  |  |  |  | 
3 | CN1CCN(C[C@H](c2cccc(Cl)c2)C2(O)CCCCC2)CC1 |  | 9 | 0.029 | 0.014 |  | 0.073 |  |  |  | 
4 | CN(C)C[C@H](c1cccc(Cl)c1)C1(O)CCCCC1 | 0 |  |  |  |  |  |  |  |  | 
5 | OC1(C(CN2CCNCC2)c2cccc(Cl)c2)CCCCC1 (stereo unspecified) |  |  | 0.038 | 0.018 |  | 0.045 | 4.96 |  |  | 
6 | OC1([C@@H](CN2CCNCC2)c2cccc(Cl)c2)CCCCC1 |  |  | 0.54 | 0.214 |  | 0.34 | 6.1 |  |  | 
7 | CN(C)C[C@@H](c1cccc(Cl)c1)C1(O)CCCCC1 | 17 |  |  |  |  |  |  |  |  | 
8 | CN1CCN(CC(c2ccccc2F)C2(O)CCCCC2)CC1 (stereo unspecified) |  |  |  |  | 19 |  |  | 34 |  | 
9 | CN1CCN(CC(c2ccc(Cl)cc2)C2(O)CCCCC2)CC1 (stereo unspecified) | 26 | 0 |  | 1.22 | 7 |  |  |  |  | 
10 | COc1cccc(C(CN(C)C)C2(O)CCCCC2)c1 (stereo unspecified) | 9 |  | 0.208 | 0.316 |  |  | 0.088 |  | 0.42 | 0.62
11 | CN1CCN(CC(c2cccc(F)c2)C2(O)CCCCC2)CC1 (stereo unspecified) | 29 | 12 | 0.24 | 0.364 |  |  |  |  |  | 
12 | CN1CCN(CC(c2cccc(C(F)(F)F)c2)C2(O)CCCCC2)CC1 (stereo unspecified) | 6 | 28 | 0.092 | 0.061 |  |  |  |  |  | 
13 | COc1cccc(C(CN2CCNCC2)C2(O)CCCCC2)c1 (stereo unspecified) | 2 | 8 | 0.87 | 0.745 |  |  |  |  |  | 
14 | OC1(C(CN2CCNCC2)c2ccc(Cl)cc2)CCCCC1 (stereo unspecified) | 35 |  |  | 0.717 | 29 |  | 1.53 |  |  | 
15 | COc1ccc(C(CN2CCN(C)CC2)C2(O)CCCCC2)cc1 (stereo unspecified) | 0 | 11 |  |  | 34 |  |  |  |  | 
16 | OC1([C@H](CN2CCNCC2)c2cccc(OC(F)(F)F)c2)CCCCC1 | 13 | 3 | 0.14 | 0.117 |  |  |  |  |  | 
17 | OC1([C@H](CN2CCNCC2)c2cccc(Cl)c2)CCCCC1 |  |  | 0.025 | 0.017 |  | 0.135 | 2.67 |  |  | 
